Peptide text beside a SMILES is read from it.
Columns and labels:
Homo sapiens [1] = species on record: Homo sapiens; experiment: Selectivity ratio of IC50 for inhibition of biotinylated K-Ras G12C mutant (unknown origin) to IC50 for inhibition of biotinylated K-Ras G12D mutant (unknown origin)
GTPase KRas [2] = molecular target: T1, GTPase KRas (Homo sapiens, UniProt P01116, G12D); experiment: Inhibition of biotinylated K-Ras G12D mutant (unknown origin) assessed as reduction in SOS1 (564 to 1049 residues)-mediated BODIPY-GDP-GTP exchange after 1 hr by TR-FRET assay
GTPase KRas [3] = molecular target: GTPase KRas (Homo sapiens, UniProt P01116); experiment: Inhibition of biotinylated wild-type K-Ras (unknown origin) assessed as inhibition of human SOS1 (564 to 1049 residues)-mediated BODIPY-GDP-GTP exchange after 1 hr by TR-FRET assay
GTPase KRas [4] = molecular target: GTPase KRas (Homo sapiens, UniProt P01116, G12C); experiment: Inhibition of biotinylated K-Ras G12C mutant (unknown origin) assessed as reduction in SOS1 (564 to 1049 residues)-mediated BODIPY-GDP-GTP exchange after 1 hr by TR-FRET assay
GTPase KRas [5] = molecular target: T1, GTPase KRas; experiment: Inhibition of biotinylated K-Ras G12D mutant (unknown origin) assessed as reduction in SOS1 (564 to 1049 residues)-mediated BODIPY-GDP-GTP exchange after 1 hr in presence of DTT by TR-FRET assay
Homo sapiens [6] = species on record: Homo sapiens; experiment: Selectivity ratio of IC50 for inhibition of biotinylated wild type K-Ras (unknown origin) to IC50 for inhibition of biotinylated K-Ras G12D mutant (unknown origin)

Compound `CC[C@H](C)[C@@H]1NC(=O)[C@H](Cc2ccc(O)cc2)NC(=O)[C@H](CC(C)C)NC(=O)[C@@H]2CCCN2C(=O)[C@@H](NC(C)=O)CSSC[C@@H](C(N)=O)NC(=O)[C@H](C(C)C)NC(=O)[C@@H]2CCCN2C(=O)[C@H](CC(=O)O)NC(=O)[C@H](Cc2ccc(O)cc2)NC(=O)[C@H](CO)NC1=O` (HELM PEPTIDE1{[ac].C.P.L.Y.I.S.Y.D.P.V.C.[am]}$PEPTIDE1,PEPTIDE1,2:R3-12:R3$$$V2.0) has a Ratio IC50 (Homo sapiens [1]) of 7, an IC50 (GTPase KRas [2]) of 11 nM and an IC50 (GTPase KRas [3]) of 142 nM. The IC50 (GTPase KRas [4]) was 82 nM, the IC50 (GTPase KRas [5]) was 9770 nM and the Ratio IC50 (Homo sapiens [6]) was 13.

In the case of `CC[C@H](C)[C@@H]1NC(=O)[C@H](Cc2ccc(O)cc2)NC(=O)[C@H](CC(C)C)NC(=O)[C@H](C)NC(=O)[C@@H](NC(=O)[C@H](CCCNC(=N)N)NC(=O)[C@H](CCCNC(=N)N)NC(=O)[C@H](CCCNC(=N)N)NC(=O)[C@H](CCCNC(=N)N)NC(C)=O)CSSC[C@@H](C(=O)N[C@@H](CCCNC(=N)N)C(=O)N[C@@H](CCCNC(=N)N)C(=O)N[C@@H](CCCNC(=N)N)C(=O)N[C@@H](CCCNC(=N)N)C(N)=O)NC(=O)[C@H](C(C)C)NC(=O)[C@@H]2CCCN2C(=O)[C@H](CC(=O)O)NC(=O)[C@H](Cc2ccc(O)cc2)NC(=O)[C@H](CO)NC1=O` (HELM PEPTIDE1{[ac].R.R.R.R.C.A.L.Y.I.S.Y.D.P.V.C.R.R.R.R.[am]}$PEPTIDE1,PEPTIDE1,6:R3-16:R3$$$V2.0), the Ratio IC50 (Homo sapiens [1]) is reported as 6, the IC50 (GTPase KRas [2]) is reported as 19 nM and the IC50 (GTPase KRas [3]) is reported as 763 nM. The IC50 (GTPase KRas [4]) was 113 nM, the IC50 (GTPase KRas [5]) was 172 nM and the Ratio IC50 (Homo sapiens [6]) was 41.

In the case of `CC[C@H](C)[C@@H]1NC(=O)[C@H](Cc2ccc(O)cc2)NC(=O)[C@H](C)NC(=O)[C@@H]2CCCN2C(=O)[C@@H](NC(=O)[C@H](CCCNC(=N)N)NC(=O)[C@H](CCCNC(=N)N)NC(=O)[C@H](CCCNC(=N)N)NC(=O)[C@H](CCCNC(=N)N)NC(C)=O)CSSC[C@@H](C(=O)N[C@@H](CCCNC(=N)N)C(=O)N[C@@H](CCCNC(=N)N)C(=O)N[C@@H](CCCNC(=N)N)C(=O)N[C@@H](CCCNC(=N)N)C(N)=O)NC(=O)[C@H](C(C)C)NC(=O)[C@@H]2CCCN2C(=O)[C@H](CC(=O)O)NC(=O)[C@H](Cc2ccc(O)cc2)NC(=O)[C@H](CO)NC1=O` (HELM PEPTIDE1{[ac].R.R.R.R.C.P.A.Y.I.S.Y.D.P.V.C.R.R.R.R.[am]}$PEPTIDE1,PEPTIDE1,6:R3-16:R3$$$V2.0), the Ratio IC50 (Homo sapiens [1]) is reported as 1, the IC50 (GTPase KRas [2]) is reported as 1790 nM and the IC50 (GTPase KRas [3]) is reported as greater than 100000 nM. It also gave an IC50 (GTPase KRas [4]) of 1630 nM, an IC50 (GTPase KRas [5]) greater than 100000 nM and a Ratio IC50 (Homo sapiens [6]) greater than 56.

In the case of `CC[C@H](C)[C@@H]1NC(=O)[C@H](C)NC(=O)[C@H](CC(C)C)NC(=O)[C@@H]2CCCN2C(=O)[C@@H](NC(=O)[C@H](CCCNC(=N)N)NC(=O)[C@H](CCCNC(=N)N)NC(=O)[C@H](CCCNC(=N)N)NC(=O)[C@H](CCCNC(=N)N)NC(C)=O)CSSC[C@@H](C(=O)N[C@@H](CCCNC(=N)N)C(=O)N[C@@H](CCCNC(=N)N)C(=O)N[C@@H](CCCNC(=N)N)C(=O)N[C@@H](CCCNC(=N)N)C(N)=O)NC(=O)[C@H](C(C)C)NC(=O)[C@@H]2CCCN2C(=O)[C@H](CC(=O)O)NC(=O)[C@H](Cc2ccc(O)cc2)NC(=O)[C@H](CO)NC1=O` (HELM PEPTIDE1{[ac].R.R.R.R.C.P.L.A.I.S.Y.D.P.V.C.R.R.R.R.[am]}$PEPTIDE1,PEPTIDE1,6:R3-16:R3$$$V2.0), the Ratio IC50 (Homo sapiens [1]) is reported as 1, the IC50 (GTPase KRas [2]) is reported as 50 nM and the IC50 (GTPase KRas [3]) is reported as 1730 nM. For the same compound, the IC50 (GTPase KRas [4]) was 53 nM, the IC50 (GTPase KRas [5]) was 192 nM and the Ratio IC50 (Homo sapiens [6]) was 34.

For `CC(=O)N[C@@H](CCCNC(=N)N)C(=O)N[C@@H](CCCNC(=N)N)C(=O)N[C@@H](CCCNC(=N)N)C(=O)N[C@@H](CCCNC(=N)N)C(=O)N[C@H]1CSSC[C@@H](C(=O)N[C@@H](CCCNC(=N)N)C(=O)N[C@@H](CCCNC(=N)N)C(=O)N[C@@H](CCCNC(=N)N)C(=O)N[C@@H](CCCNC(=N)N)C(N)=O)NC(=O)[C@H](C(C)C)NC(=O)[C@@H]2CCCN2C(=O)[C@H](CC(=O)O)NC(=O)[C@H](Cc2ccc(O)cc2)NC(=O)[C@H](CO)NC(=O)[C@H](C)NC(=O)[C@H](Cc2ccc(O)cc2)NC(=O)[C@H](CC(C)C)NC(=O)[C@@H]2CCCN2C1=O` (HELM PEPTIDE1{[ac].R.R.R.R.C.P.L.Y.A.S.Y.D.P.V.C.R.R.R.R.[am]}$PEPTIDE1,PEPTIDE1,6:R3-16:R3$$$V2.0), the Ratio IC50 (Homo sapiens [1]) was 0.3, the IC50 (GTPase KRas [2]) was 20600 nM and the IC50 (GTPase KRas [3]) was 39300 nM. For the same compound, the IC50 (GTPase KRas [4]) was 5190 nM, the IC50 (GTPase KRas [5]) was 73500 nM and the Ratio IC50 (Homo sapiens [6]) was 2.

From ChEMBL document CHEMBL4020739, “Investigation of the structural requirements of K-Ras(G12D) selective inhibitory peptide KRpep-2d using alanine scans and cysteine bridging” (Bioorg Med Chem Lett, 2017)
